Laboratory results from paper PMC5063900, “A phase 1 study of the safety, tolerability, pharmacokinetics, and pharmacodynamics of TAK-063, a selective PDE10A inhibitor” (Psychopharmacology, 2016).

Test: Treatment-emergent adverse events, phase 1 single-rising-dose study in healthy subjects
Format: in vivo, human
Method: Healthy Japanese and non-Japanese subjects between 18 and 55 years of age were recruited to participate in the study. Criteria for exclusion included prior treatment with any investigational compound within 30 days of the first TAK-063 dose, a positive test for drugs of abuse or nicotine, and an increased risk for suicide. […] Following a washout period of 7 days, subjects in cohort 3 (100 mg) received the same dose (100 mg) but under fed conditions.
The study assessed safety and tolerability in all subjects for the 4-day study duration. The primary endpoints were the percentage of subjects who experienced at least one treatment-emergent adverse event (TEAE), as well as the percentage of subjects who met predefined criteria for safety laboratory tests, vital sign measurements, and safety parameters following TAK-063 administration. The secondary endpoints were PK parameters for TAK-063 and M-I, assessing drug exposure at each dose, and the effect of food coadministration on TAK-063 PK. Exploratory endpoints included the effects of TAK-063 on domains of cognition as assessed by a computerized battery, CNS Vital Signs (CNSVS).
Adverse events, clinical laboratory tests, vital signs, 12-lead electrocardiograms (ECGs), and Columbia-Suicide Severity Rating Scale (C-SSRS) were all monitored. Intensity of AEs was classified as mild, moderate, or severe, and each AE was classified as to its relation to study drug.
Laboratory tests evaluated hematology, serum chemistry, urine, and hormone levels. Vital signs and ECGs were collected at screening, check-in, within 1 h predose, serially postdose, and at study exit, while the C-SSRS was administered at screening, check-in, and study exit. Any events reported on the C-SSRS and clinically significant laboratory abnormalities were reported as AEs.

[1] = Japanese subjects, TAK-063 Total (n = 30)
[2] = Japanese subjects, single 3 mg dose (n = 5)
[3] = Japanese subjects, single 10 mg dose (n = 5)
[4] = Japanese subjects, single 30 mg dose (n = 5)
[5] = Japanese subjects, single 100 mg dose (n = 5)
[6] = Japanese subjects, single 300 mg dose (n = 5)
[7] = Japanese subjects, single 1000 mg dose (n = 5)
[8] = all TAK-063-treated subjects, all cohorts
[9] = all subjects, TAK-063 Total (n = 66)
[10] = all subjects, single 3 mg dose (n = 11)
[11] = all subjects, single 10 mg dose (n = 11)
[12] = all subjects, single 30 mg dose (n = 11)

SMILES: COc1cn(-c2ccc(-n3cccn3)cc2F)nc(-c2ccnn2-c2ccccc2)c1=O [TAK-063]
- Severe AE: orthostatic hypotension, number of subjects (300 mg): 1
- Severe AE: somnolence, number of subjects (1000 mg): 2
- AEs of mild intensity (55/63 AEs): 87.3%
- Total incidence of TEAEs (Japanese subjects treated with TAK-063): 43.3%
- Adverse event: Dizziness [1]: 1 (3.3) n (%)
- Adverse event: Epistaxis [1]: 1 (3.3) n (%)
- Adverse event: Headache [1]: 1 (3.3) n (%)
- Adverse event: Muscle tightness [1]: 1 (3.3) n (%)
- Adverse event: Nausea [1]: 1 (3.3) n (%)
- Adverse event: Orthostatic hypotension [1]: 4 (13.3) n (%)
- Adverse event: Orthostatic tachycardia [1]: 5 (16.7) n (%)
- Adverse event: Somnolence [1]: 10 (33.3) n (%)
- Adverse event: Vomiting [1]: 2 (6.7) n (%)
- Adverse event: Dizziness [2]: 0 n (%)
- Adverse event: Epistaxis [2]: 0 n (%)
- Adverse event: Headache [2]: 0 n (%)
- Adverse event: Muscle tightness [2]: 0 n (%)
- Adverse event: Nausea [2]: 0 n (%)
- Adverse event: Orthostatic hypotension [2]: 0 n (%)
- Adverse event: Orthostatic tachycardia [2]: 0 n (%)
- Adverse event: Somnolence [2]: 0 n (%)
- Adverse event: Vomiting [2]: 0 n (%)
- Adverse event: Dizziness [3]: 0 n (%)
- Adverse event: Epistaxis [3]: 0 n (%)
- Adverse event: Headache [3]: 0 n (%)
- Adverse event: Muscle tightness [3]: 0 n (%)
- Adverse event: Nausea [3]: 0 n (%)
- Adverse event: Orthostatic hypotension [3]: 0 n (%)
- Adverse event: Orthostatic tachycardia [3]: 0 n (%)
- Adverse event: Somnolence [3]: 0 n (%)
- Adverse event: Vomiting [3]: 0 n (%)
- Adverse event: Dizziness [4]: 0 n (%)
- Adverse event: Epistaxis [4]: 1 (20.0) n (%)
- Adverse event: Headache [4]: 0 n (%)
- Adverse event: Muscle tightness [4]: 1 (20.0) n (%)
- Adverse event: Nausea [4]: 0 n (%)
- Adverse event: Orthostatic hypotension [4]: 0 n (%)
- Adverse event: Orthostatic tachycardia [4]: 1 (20.0) n (%)
- Adverse event: Somnolence [4]: 1 (20.0) n (%)
- Adverse event: Vomiting [4]: 0 n (%)
- Adverse event: Dizziness [5]: 0 n (%)
- Adverse event: Epistaxis [5]: 0 n (%)
- Adverse event: Headache [5]: 1 (20.0) n (%)
- Adverse event: Muscle tightness [5]: 0 n (%)
- Adverse event: Nausea [5]: 0 n (%)
- Adverse event: Orthostatic hypotension [5]: 1 (20.0) n (%)
- Adverse event: Orthostatic tachycardia [5]: 0 n (%)
- Adverse event: Somnolence [5]: 4 (80.0) n (%)
- Adverse event: Vomiting [5]: 1(20.0) n (%)
- Adverse event: Dizziness [6]: 0 n (%)
- Adverse event: Epistaxis [6]: 0 n (%)
- Adverse event: Headache [6]: 0 n (%)
- Adverse event: Muscle tightness [6]: 0 n (%)
- Adverse event: Nausea [6]: 0 n (%)
- Adverse event: Orthostatic hypotension [6]: 1 (20.0) n (%)
- Adverse event: Orthostatic tachycardia [6]: 1 (20.0) n (%)
- Adverse event: Somnolence [6]: 2 (40.0) n (%)
- Adverse event: Vomiting [6]: 0 n (%)
- Adverse event: Dizziness [7]: 1 (20.0) n (%)
- Adverse event: Epistaxis [7]: 0 n (%)
- Adverse event: Headache [7]: 0 n (%)
- Adverse event: Muscle tightness [7]: 0 n (%)
- Adverse event: Nausea [7]: 1 (20.0) n (%)
- Adverse event: Orthostatic hypotension [7]: 2 (40.0) n (%)
- Adverse event: Orthostatic tachycardia [7]: 3 (60.0) n (%)
- Adverse event: Somnolence [7]: 3 (60.0) n (%)
- Adverse event: Vomiting [7]: 1 (20.0) n (%)
- Subjects experiencing drug-related AEs (across all cohorts): 32 of 66
- Total number of drug-related AEs (across all cohorts): 57
- Drug-related AE: orthostatic hypotension, incidence [8]: 10.6%
- Drug-related AE: orthostatic tachycardia, incidence [8]: 19.7%
- Drug-related AE: somnolence, incidence [8]: 33.3%
- Adverse event: Anxiety [9]: 1 (1.5) n (%)
- Adverse event: Blurred vision [9]: 1 (1.5) n (%)
- Adverse event: Dizziness [9]: 3 (4.5) n (%)
- Adverse event: Dysarthria [9]: 1(1.5) n (%)
- Adverse event: Epistaxis [9]: 1 (1.5) n (%)
- Adverse event: Headache [9]: 2 (3.0) n (%)
- Adverse event: Hypotension [9]: 1 (1.5) n (%)
- Adverse event: Muscle tightness [9]: 1 (1.5) n (%)
- Adverse event: Nausea [9]: 3 (4.5) n (%)
- Adverse event: Orthostatic hypotension [9]: 7 (10.6) n (%)
- Adverse event: Orthostatic tachycardia [9]: 13 (19.7) n (%)
- Adverse event: Somnolence [9]: 22 (33.3) n (%)
- Adverse event: Vomiting [9]: 3 (4.5) n (%)
- Adverse event: Anxiety [10]: 0 n (%)
- Adverse event: Blurred vision [10]: 0 n (%)
- Adverse event: Dizziness [10]: 0 n (%)
- Adverse event: Dysarthria [10]: 0 n (%)
- Adverse event: Epistaxis [10]: 0 n (%)
- Adverse event: Headache [10]: 0 n (%)
- Adverse event: Hypotension [10]: 0 n (%)
- Adverse event: Muscle tightness [10]: 0 n (%)
- Adverse event: Nausea [10]: 0 n (%)
- Adverse event: Orthostatic hypotension [10]: 0 n (%)
- Adverse event: Orthostatic tachycardia [10]: 2 (18.2) n (%)
- Adverse event: Somnolence [10]: 0 n (%)
- Adverse event: Vomiting [10]: 0 n (%)
- Adverse event: Anxiety [11]: 0 n (%)
- Adverse event: Blurred vision [11]: 0 n (%)
- Adverse event: Dizziness [11]: 0 n (%)
- Adverse event: Dysarthria [11]: 0 n (%)
- Adverse event: Epistaxis [11]: 0 n (%)
- Adverse event: Headache [11]: 0 n (%)
- Adverse event: Hypotension [11]: 0 n (%)
- Adverse event: Muscle tightness [11]: 0 n (%)
- Adverse event: Nausea [11]: 0 n (%)
- Adverse event: Orthostatic hypotension [11]: 0 n (%)
- Adverse event: Orthostatic tachycardia [11]: 0 n (%)
- Adverse event: Somnolence [11]: 0 n (%)
- Adverse event: Vomiting [11]: 0 n (%)
- Adverse event: Anxiety [12]: 0 n (%)
- Adverse event: Blurred vision [12]: 0 n (%)
- Adverse event: Dizziness [12]: 1 (9.1) n (%)
- Adverse event: Dysarthria [12]: 0 n (%)
- Adverse event: Epistaxis [12]: 1 (9.1) n (%)
- Adverse event: Headache [12]: 0 n (%)
- Adverse event: Hypotension [12]: 0 n (%)
- Adverse event: Muscle tightness [12]: 1 (9.1) n (%)
- Adverse event: Nausea [12]: 2 (18.2) n (%)
- Adverse event: Orthostatic hypotension [12]: 0 n (%)
- Adverse event: Orthostatic tachycardia [12]: 1 (9.1) n (%)
